Data reported in patent US20020025940A1, “Methods and compositions for sensitive and rapid, functional identification of genomic polynucleotides and use for cellular assays in drug discovery” (Aurora Biosciences Corporation, priority 1997, published 2002).

Test system: repressed BLEC Jurkat clones
Assay: Characterization of repressed BLEC Jurkat clones, relative repression of beta-lactamase
Format: cell-based, human
Conditions: PHA 10 microgram/ml, CsA 100 nM, PMA 8 nM, Thaps 1 microM
Description: These clones represent cells in which the BLEC trapping construct had integrated into a gene down regulated by PHA (T-cell) activation. Thus, these cells report the transcriptional repression of a gene upon cellular activation. Individual clones were identified and isolated by FACS using CCF2/AM to detect beta-lactamase activity using the following repressed sorting paradigm.
A first sort was used to isolate a population of cells that constitutively express beta-lactamase by identifying and isolating a population of blue cells from an unstimulated population of BLEC transfected Jurkat cells contacted with CCF2/AM. The sorted population of cells represented 2.89% of the unsorted population. These cells were cultured, divided into two pools, and stimulated with one of two different stimuli, either 10 micrograms/ml PHA for 18 hours, or 8 nM PMA and 1 microM Thapsigargin for 18 hours. These stimulated cells were contacted with CCF2 (loading in the presence of 400 PET (4% weight/volume) and Pluoronic 128 (100 micrograms/ml)) and the green cells in the population were sorted using FACS. The sorted population represented 8.41% of the cell population prior to the second sort. The third round of FACS was for single blue unstimulated cells. The population of cells obtained represented 18.2% of the cell population prior to the third sort.
This sorting procedure represents a 2,260-fold enrichment for PHA repressible clones. These clones have the beta-lactamase gene integrated into a gene that is down regulated by PHA stimulation of the cells. Six of 80 individual clones tested were repressed by PHA or PMA+Thapsigargin. All of these clones were confirmed to be independent integration events by genomic Southern analysis using a DNA probe encoding beta-lactamase.
Table 7 and Table 8 provide data similar to that provided in Table 5 for all of the clones obtained by the methods of Examples 5 to 7.

Substance: phytohemaglutinin [PHA]
- Relative repression of beta-lactamase in the indicated clone by the following activator (clone 183/97pptr2): 10
- Relative repression of beta-lactamase in the indicated clone by the following activator (clone J83/97pptr1): 90
- Relative repression of beta-lactamase in the indicated clone by the following activator (clone J83/97pptr3): 10
- Relative repression of beta-lactamase in the indicated clone by the following activator (clone J83/97pptr4): 60
- Relative repression of beta-lactamase in the indicated clone by the following activator (clone J83/97pptr5): 50
- Relative repression of beta-lactamase in the indicated clone by the following activator (clone J83/97pptr6): 70
